SMILES strings stand for the structures.

The data set can be described thus: gradient 5% acetonitrile 3 min, to 50% in 2 min, to 85% in 15 min, held 3 min, 100 µL/min. Particulars: column: Zorbax Extend-C18 2.1 x 50 mm; eluents: water / acetonitrile, 0.1% formic acid. The method, boiled down: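 Mixtures of ~100 pure standards were chromatographed on a Zorbax Extend-C18 column (2.1 × 50 mm, 1.8 μm) at 100 μL/min using water and acetonitrile, each with 0.1% formic acid. Detection used a quadrupole time-of-flight mass spectrometer in positive and negative ionization mode, and data collection spanned 3 months. Retention time was obtained from adduct peaks picked computationally and each checked manually.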
Molecule `O=C(CN1CCN(Cc2cccc(Cl)c2)C1=O)N1CCN(C2CCCCC2)CC1` had an RP-LC retention time of 648 s. Consider `COc1cccc(-c2nc(N3CCCCC3)ncc2C(=O)O)c1`, for which the RP-LC retention time came to 950 s. As for `COc1ccc(NC(=O)NCC2(CO)CC2)cc1OC`, the RP-LC retention time was 581 s. For the molecule `COC(=O)c1cn(Cc2c(F)cccc2Cl)nc1S(=O)(=O)N(C)c1ccccc1`, the RP-LC retention time is 718 s. In turn, `O=C(NCc1ccccc1)c1cc2sccc2n1Cc1ccc(Cl)cc1` registered an RP-LC retention time of 1170 s.

Regarding `CCOc1ccc(-n2ccn3c(CC(C)CC(=O)NC4CCCC4)nnc3c2=O)cc1` (stereo not given), the RP-LC retention time turned out to be 710 s. With `COCc1nc(C2CCN(C(=O)C3CCCC3)C2)no1` (stereo not given), the RP-LC retention time was 688 s. The figure for `C[C@]12CCC3C(CC[C@H]4C[C@H](O)CC[C@]34C)C1CC[C@@H]2C(=O)CO` (stereo not given in full) is 1020 s; for `COc1ccc(-c2noc(C3CCCN3C(=O)Nc3ccc(F)cc3F)n2)cc1` (stereo not given) it is 963 s; for `Cn1c(CNC(=O)C2CCC2)nc2c1CN(C(=O)Cc1ccc(Cl)cc1)CC2` it is 623 s. `O=C(C1CCCC1)N1CCN(Cc2nnnn2-c2ccccc2)CC1` gave an RP-LC retention time of 712 s.

On to `CCOC(=O)C1CCN(S(=O)(=O)c2cc3c4c(c2)CCC(=O)N4CCC3)CC1`, for which the RP-LC retention time is 769 s. For the molecule `Cc1nnc(N2CCCC(C(=O)NCCc3ccccc3)C2)c2nn(-c3ccccc3)c(C)c12` (stereo not given), the RP-LC retention time is 726 s.

For `O=C(NCc1ccccc1)N1CCN(c2ccc(-c3cccs3)nn2)CC1`, the RP-LC retention time stood at 639 s. Turning to `CCN1CCCn2cc(S(=O)(=O)Nc3cccc(F)c3)cc2C1=O`, the RP-LC retention time was 716 s. In the case of `CC(=O)Nc1ccc(C(=O)NCc2ccc(C)o2)c(N2CCOCC2)c1`, the RP-LC retention time stood at 684 s. As to `CCC(=O)N1CCCC1c1nc2ccccc2n1CC(=O)N1CCCC1` (stereo not given), the RP-LC retention time came to 584 s. The molecule `O=C(CCc1c[nH]c2ccccc12)NCCc1c[nH]c2ccc(Cl)cc12` came in with an RP-LC retention time of 861 s. Consider `Cc1ccc(-n2nc(N3CCN(C(=O)Nc4ccc(F)cc4)CC3)ccc2=O)cc1`, for which the RP-LC retention time was found to be 803 s. Then `Cc1cc2nn(CC(=O)Nc3ccc(F)c(F)c3)c(=O)n2c(Nc2ccc(F)c(C)c2)n1`, with 1090 s; and `CCc1ccc(NC(=O)N2CCC(c3nc4cccnc4n3C)C2)cc1` (stereo not given), with 711 s. `CCn1cc(CCNC(=O)Nc2ccc(C)c(C)c2)c2cccnc21` registered an RP-LC retention time of 762 s.

Consider `CCn1cc(C(=O)NC(C)c2ccc(OC)c(OC)c2)c(=O)c2ccc(C)nc21` (stereo not given), for which the RP-LC retention time turned out to be 885 s. In turn, `CCNc1nc(-c2ccc(C3CCCCC3)cc2)cs1` returned an RP-LC retention time of 1060 s. On to `O=C(C1=NN(Cc2ccccc2Cl)c2ccccc2S1(=O)=O)N1CCOCC1`, for which the RP-LC retention time is 873 s.

The molecule `COc1ccc(-c2cc3n(n2)CCCN(C(=O)C2CCOC2)C3)cc1` (stereo not given) yielded an RP-LC retention time of 703 s. `O=C(NCc1cccc(Cl)c1)c1cccn1-c1cccnc1` registered an RP-LC retention time of 749 s. Molecule `COc1ccccc1C(=O)NC1CCN(c2ccc(C)cc2)C1=O` (stereo not given) came in with an RP-LC retention time of 870 s. `COc1ccc(Cl)cc1NS(=O)(=O)c1c(C)sc(C)c1-c1cc(C)[nH]n1` displayed an RP-LC retention time of 1040 s. In turn, `CCCn1cc(C(=O)NCc2ccccc2F)c(S(=O)(=O)N2CCC(C)CC2)n1` registered an RP-LC retention time of 1090 s. Then `O=C(c1ccsc1)N1CCN(Cc2ccc(=O)n(CC3CC3)c2)CC1`, with 543 s; and `COC(=O)C1CCN(S(=O)(=O)c2ccc(Cl)c(-c3nnc(-c4ccccc4)o3)c2)CC1`, with 1040 s; and `CC1CCN(c2cc(-n3cnc(C(=O)N4CCCCC4)c3)ncn2)CC1`, with 920 s. `COc1ccc(-n2ccc(=O)c(-c3nc(-c4ccc(Cl)c(F)c4)no3)n2)cc1` had an RP-LC retention time of 993 s. The molecule `COc1cc(OC)c(NC(=O)NCC(c2cccnc2)c2cn(C)c3ccccc23)cc1Cl` (stereo not given) gave an RP-LC retention time of 741 s. In turn, `COc1ccc(-n2c(=O)n(C)c(=O)c3cc(C(=O)Nc4ccc(C)cc4F)cnc32)cc1` returned an RP-LC retention time of 849 s. `COc1cccc(Cn2c(=O)c3sccc3n(Cc3nc(-c4ccc(C)c(C)c4)no3)c2=O)c1` displayed an RP-LC retention time of 1200 s. In turn, `COc1ccccc1-c1cc(C(=O)N2CCN(c3cc(=O)n(C)c(=O)n3C)CC2)[nH]n1` displayed an RP-LC retention time of 665 s. The figure for `COc1cc(Cl)c(CC2C(=O)Nc3ccccc32)cc1OC` (stereo not given) is 900 s. `Cn1cc(OCc2ccccc2)c(=O)cc1C(=O)N1CCN(c2ccccn2)CC1` registered an RP-LC retention time of 538 s. Molecule `COc1ccc(N2CC(c3noc(-c4ccccc4)n3)CC2=O)cc1` (stereo not given) yielded an RP-LC retention time of 919 s. The molecule `CC(C)NC(=O)CN1C(=O)C2CCCCN2c2ccc(S(=O)(=O)N(C)C)cc21` (stereo not given) had an RP-LC retention time of 781 s. Then `COc1ccc(CNC(=O)c2nc(N3CCOCC3)c3ccccc3n2)cc1`, with 662 s; and `O=c1c2cc(-c3ccc4c(c3)OCO4)nn2ccn1Cc1ccccc1F`, with 985 s.

Regarding `O=C(c1cccc2[nH]ccc12)N1CC(Oc2cccc(-c3nc(-c4ccccc4)no3)c2)C1`, the RP-LC retention time is 1090 s.

Molecule `CCOC(=O)c1cccc(NC(=O)C2CCCN(c3ccc(=O)n(-c4cccc(Cl)c4)n3)C2)c1` (stereo not given) registered an RP-LC retention time of 994 s.

As to `Cc1ccn2cc(-c3ccc(NC(=O)C4CCCCC4)cc3)nc2n1`, the RP-LC retention time was found to be 657 s. The figure for `CCc1ccc(CNC(=O)c2cn3ccccc3n2)cc1` is 757 s; for `O=C(NCc1ccc(F)cc1F)c1cc2n(n1)CCCC2` it is 812 s.

Regarding `Cn1nccc1-c1cccc(-c2noc(-c3ccccc3)n2)c1`, the RP-LC retention time is 1120 s. `O=C(NCc1ccccc1Cl)C(=O)NCC1CCN(C(=O)COc2ccccc2)CC1` came in with an RP-LC retention time of 566 s. On to `Cc1nc(-c2ccc3c(c2)n(CC(=O)NC2CCCCC2)c(=O)n3C(C)C)no1`, for which the RP-LC retention time came to 857 s.

`Cc1cc(C)cc(C(=O)N2CCN(S(=O)(=O)c3cc4c5c(c3)CCC(=O)N5CCC4)CC2)c1`: the RP-LC retention time came out at 815 s.

Molecule `CC(C)CCNC(=O)CSc1nc(N2CCc3ccccc3C2)nc2ccccc12` came in with an RP-LC retention time of 917 s. `COc1nn(C)cc1C(=O)NCC(=O)NCCOc1ccc(F)cc1`: the RP-LC retention time is 626 s. In the case of `Cc1ccc(Cl)c(NC(=O)c2nc(C)oc2C)c1`, the RP-LC retention time was determined as 1140 s. In turn, `COc1ccc(-c2noc(CN3C(=O)COc4ccccc43)n2)cc1OC` returned an RP-LC retention time of 882 s. In the case of `Cc1nnc2n1CCN(C(=O)c1n[nH]c3ccccc13)C2`, the RP-LC retention time was 558 s.

Molecule `Cc1ccccc1CCNC(=O)c1cc2n(n1)CC(C)(C(=O)NCc1ccccc1)N(C)C2=O` (stereo not given) gave an RP-LC retention time of 764 s. The figure for `O=C(Cc1cn(Cc2ccc(F)cc2)c2ccccc12)N1CCN(C(=O)c2ccco2)CC1` is 803 s.

Molecule `Cc1nc(N2CCCC2)c2c(C(=O)Nc3ccc(C)c(F)c3)c(C)oc2n1` came in with an RP-LC retention time of 836 s. Turning to `COc1ccc(NC(=O)Cn2c(=O)n(-c3ccccc3)c3ncccc32)c(OC)c1`, the RP-LC retention time is 808 s. The molecule `Cc1cccc(Sc2nccnc2N2CCCC(C(=O)NCc3ccccc3C)C2)c1` (stereo not given) gave an RP-LC retention time of 1150 s.

`COc1nccnc1N1CCC(N(C)C(=O)c2ccc3c(c2)OCO3)C1` (stereo not given) displayed an RP-LC retention time of 694 s. For the molecule `O=C(Cc1ccc(F)cc1)NC1CCN(c2ccccc2)C1=O` (stereo not given), the RP-LC retention time worked out at 770 s.

Consider `CCSc1nnc(NC(=O)C2CCCN(Cc3nc(-c4cccs4)no3)C2)s1` (stereo not given), for which the RP-LC retention time is 769 s. `Cc1nnc2n1CCC(NC(=O)c1ccoc1)CC2` (stereo not given) registered an RP-LC retention time of 532 s. For `COC[C@@H]1OCCN(S(=O)(=O)c2cn(C)cn2)[C@H]1c1ccccc1`, the RP-LC retention time was found to be 686 s.

For `Cc1ccc2nc(-c3ccccc3F)c(Nc3ccc(Cl)cc3)n2c1`, the RP-LC retention time was 754 s. `COc1ccc2[nH]c3c(c2c1)CCN(C(=O)CC(C)C)C31C(=O)N(C)c2ccccc21` (stereo not given) displayed an RP-LC retention time of 888 s.

As to `CC1CCN(C(=O)c2cn(-c3cc(N4CCSCC4)ncn3)cn2)CC1`, the RP-LC retention time stood at 858 s. Molecule `Cc1[nH]nc(-c2ccc(S(=O)(=O)N3CCN(c4ccccn4)CC3)s2)c1C` yielded an RP-LC retention time of 662 s. Molecule `COC(=O)c1ccc(NC(=O)C(=O)NCCN2CCN(c3ccccc3OC)CC2)cc1` came in with an RP-LC retention time of 581 s. The figure for `Cc1ccc(-c2noc(Cn3c(=O)n(C(C)C)c(=O)c4ccccc43)n2)cc1C` is 1220 s; for `CCCCSc1cc(=O)[nH]c(N)n1` it is 700 s; for `CCn1nc(-c2ccccc2)c(-c2ccccc2)c(C(=O)NCCN(C)C)c1=O` it is 648 s. Then `CCCNc1cc(N2CCC(CCC(=O)N3CCN(C(=O)OCC)CC3)CC2)ncn1`, with 620 s; and `CCOc1ccccc1-c1nc(-c2ccc3ncn(CC)c3c2)no1`, with 788 s; and `COc1cc(C)c(C(C)C)cc1S(=O)(=O)NCc1ccco1`, with 594 s. The figure for `CNC(=O)c1ccc(-c2nc3cc(NS(=O)(=O)c4cc(F)ccc4C)ccc3n2C)cc1` is 832 s.

Source of the values: the METLIN SMRT retention time set (Domingo-Almenara et al. 2019).
